The target of data set [1] is LCMV ExoN (Mammarenavirus choriomeningitidis, UniProt P09992). In words: biochemical. The arrangement: species or system Lymphocytic Choriomeningitis virus.
In data set [2] the target is MACV ExoN (Mammarenavirus machupoense, UniProt P26578). In words: biochemical. The arrangement: species or system Machupo virus.
The target of data set [3] is SARS-CoV-2 ExoN nsp14/nsp10 complex (Severe acute respiratory syndrome coronavirus 2, UniProt P0DTD1). In words: biochemical. The note with it: read-out: % inhibition of ExoN at 5 μM.
Data set [4] has as its system LCMV minigenome. The data set is classed as cell-based.
For data set [5], the system named is SARS-CoV-2 in VeroE6 TMPRSS2 cells. In words: microbe, parasite or virus in culture. The data set is classed as cell-based.
Data set [6] concerns LCMV, MACV and SARS-CoV-2 ExoN. The data set is classed as biochemical.
Data set [7] can be described thus: in vitro. Particulars: african green monkey, veroe6 tmprss2 cells.
Where [8] appears, read: read-out: % inhibition of ExoN at 5 μM.
[9] abbreviates: Severe acute respiratory syndrome coronavirus 2, VeroE6/TMPRSS2.

“And” between values parts separate entries of the source, which are not always exact repeats. Equal values may be shown once. Read-outs that look alike come from different tables or passages of the source.

LCMV ExoN, sequence (P09992 357-558 limits assumed): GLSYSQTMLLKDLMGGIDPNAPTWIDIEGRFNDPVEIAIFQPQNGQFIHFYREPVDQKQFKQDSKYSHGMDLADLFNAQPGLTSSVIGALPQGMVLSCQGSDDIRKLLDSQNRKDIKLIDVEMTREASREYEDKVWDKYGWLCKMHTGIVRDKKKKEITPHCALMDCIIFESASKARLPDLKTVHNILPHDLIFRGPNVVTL
MACV ExoN, sequence (P26578 355-564 limits assumed): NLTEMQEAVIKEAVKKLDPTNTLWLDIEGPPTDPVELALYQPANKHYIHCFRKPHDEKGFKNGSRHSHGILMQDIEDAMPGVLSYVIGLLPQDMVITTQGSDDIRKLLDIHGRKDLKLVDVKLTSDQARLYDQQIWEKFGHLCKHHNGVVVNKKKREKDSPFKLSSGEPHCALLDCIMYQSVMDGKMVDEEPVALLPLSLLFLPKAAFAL

What is called IC50 is the concentration needed to halve the response being measured. The term inhibition denotes the share of the control response that was lost under treatment. One may read the EC50 as the concentration needed to bring the measured effect to its halfway point. By CC50 is commonly meant the concentration at which the toxic effect on the cells reaches its halfway point. For `O=C(O)C1=CC(=C(c2ccc(O)c(C(=O)O)c2)c2ccc(O)c(C(=O)O)c2)C=CC1=O` [Compound 40, Aurintricarboxyclic acid], the IC50 in data set [1] (IC50) was 7.05 µM and 7.1 µM; in data set [2] (IC50), 5.57 µM and 5.6 µM. Besides, the inhibition at 5 µM in data set [1] (setting [8]) is 52%; in data set [2] (setting [8]), 39%; in data set [3] it was 23%. In addition, the “antiviral effect” value in data set [4] is “no antiviral effect”. Besides, the EC50 in data set [5] was found to be 27 µM; in data set [5] (setting [9]), 27.2 ± 20.7 µM. Moreover, in data set [6], the “% inhibition of ExoN at 20 μM, all ExoN” value was 100%. In data set [7], this compound registered a CC50 at 48 h greater than 50 µM.
Turning to `CCC(CC)COC(=O)[C@H](C)N[P@](=O)(OC[C@H]1O[C@@](C#N)(c2ccc3c(N)ncnn23)[C@H](O)[C@@H]1O)Oc1ccccc1` [Remdesivir], the EC50 in data set [5] (setting [9]) was 1.5 ± 1.1 µM.

For the origin of these results see article PMC9212739 (Antiviral Research, 2022).
